Assays:
Type in all cases: in vivo
[1] = test system: Abutilon theophrasti (ABUTH); test: Pre-emergence herbicidal test; conditions: 1000 g/ha, evaluated after 13 days
[2] = test system: Amaranthus retoflexus (AMARE); test: Pre-emergence herbicidal test; conditions: 1000 g/ha, evaluated after 13 days
Zea mays (ZEAMX) [3] = test: Pre-emergence herbicidal test; conditions: 1000 g/ha, evaluated after 13 days
[4] = test system: Ipomoea hederacea (IPOHE); test: Pre-emergence herbicidal test; conditions: 1000 g/ha, evaluated after 13 days
[5] = test system: Ipomoea hederacea (IPOHE); test: Post-emergence herbicidal test; conditions: 1000 g/ha unless otherwise stated, evaluated after 13 days
In short: (§1)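 Scores on a five-point scale: 5=81-100%, 4=61-80%, 3=41-60%, 2=21-40%, 1=10-20%, 0=0% damage. These are assessed 13 days after spraying at 1000 g/ha unless stated.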

[6] = test system: Abutilon theophrasti (ABUTH); test: Post-emergence herbicidal test; conditions: 1000 g/ha unless otherwise stated, evaluated after 13 days
In short: as §1

Zea mays (ZEAMX) [7] = test: Post-emergence herbicidal test; conditions: 1000 g/ha unless otherwise stated, evaluated after 13 days
In short: as §1

[8] = test system: Echinochloa crus-galli (ECHCG); test: Post-emergence herbicidal test; conditions: 1000 g/ha unless otherwise stated, evaluated after 13 days
In short: as §1

Setaria faberi (SETFA) [9] = test: Post-emergence herbicidal test; conditions: 1000 g/ha unless otherwise stated, evaluated after 13 days
In short: as §1

[10] = test system: Amaranthus retoflexus (AMARE); test: Post-emergence herbicidal test; conditions: 1000 g/ha unless otherwise stated, evaluated after 13 days
In short: as §1

Setaria faberi (SETFA) [11] = test: Pre-emergence herbicidal test; conditions: 1000 g/ha, evaluated after 13 days
[12] = test system: Echinochloa crus-galli (ECHCG); test: Pre-emergence herbicidal test; conditions: 1000 g/ha, evaluated after 13 days

Row | SMILES | percentage damage caused to the plant, five-point scale, ABUTH [1] | percentage damage caused to the plant, five-point scale, AMARE [2] | percentage damage caused to the plant, five-point scale, ZEAMX (Zea mays (ZEAMX) [3]) | percentage damage caused to the plant, five-point scale, IPOHE [4] | percentage damage caused to the plant, IPOHE (five-point scale) [5] | percentage damage caused to the plant, ABUTH (five-point scale) [6] | percentage damage caused to the plant, ZEAMX (five-point scale) (Zea mays (ZEAMX) [7]) | percentage damage caused to the plant, ECHCG (five-point scale) [8] | percentage damage caused to the plant, SETFA (five-point scale) (Setaria faberi (SETFA) [9]) | percentage damage caused to the plant, AMARE (five-point scale) [10] | percentage damage caused to the plant, five-point scale, SETFA (Setaria faberi (SETFA) [11]) | percentage damage caused to the plant, five-point scale, ECHCG [12]
1 | CC(C)Cc1ccc2c(c1S(C)(=O)=O)c(=O)c(C(=O)O)nn2-c1ccc(OC(F)(F)F)cc1 [Compound P15, 6-isobutyl-5-methylsulfonyl-4-oxo-1-[4-(trifluoromethoxy)phenyl]cinnoline-3-carboxylic acid] | 1 (1=10-20%) | 1 (1=10-20%) | 0 (0=0%) | 0 (0=0%) | 0 (0=0%) | 1 (1=10-20%) | 1 (1=10-20%) | 1 (1=10-20%) | 1 (1=10-20%) | 1 (1=10-20%) | 1 (1=10-20%) | 1 (1=10-20%)
2 | CCOC(=O)c1nn(-c2ccc(Cl)cc2Cl)c2cccc(S(C)(=O)=O)c2c1=O [Compound P44, ethyl 1-(2,4-dichlorophenyl)-5-methylsulfonyl-4-oxo-cinnoline-3-carboxylate] | 0 (0=0%) | 1 (1=10-20%) | 0 (0=0%) | 0 (0=0%) | 1 (1=10-20%) | 1 (1=10-20%) | 1 (1=10-20%) | 4 (4=61-80%) | 4 (4=61-80%) | 1 (1=10-20%) | 4 (4=61-80%) | 2 (2=21-40%)
3 | CCOC(=O)c1nn(-c2ccc(OC(F)(F)F)cc2)c2cccc(S(=O)(=O)CC(F)(F)F)c2c1=O [Compound P40, ethyl 4-oxo-5-(2,2,2-trifluoroethylsulfonyl)-1-[4-(trifluoromethoxy)phenyl]cinnoline-3-carboxylate] | 1 (1=10-20%) | 0 (0=0%) | 1 (1=10-20%) | 0 (0=0%) | 0 (0=0%) | 1 (1=10-20%) | 1 (1=10-20%) | 1 (1=10-20%) | 1 (1=10-20%) | 1 (1=10-20%) | 1 (1=10-20%) | 0 (0=0%)
4 | CCCCCCCCCOC(=O)c1nn(-c2ccc(OC(F)(F)F)cc2)c2cccc(S(C)(=O)=O)c2c1=O [Compound P82, nonyl 5-methylsulfonyl-4-oxo-1-[4-(trifluoromethoxy)phenyl]cinnoline-3-carboxylate] | 0 (0=0%) | 0 (0=0%) | 0 (0=0%) | 0 (0=0%) | 1 (1=10-20%) | 1 (1=10-20%) | 1 (1=10-20%) | 1 (1=10-20%) | 0 (0=0%) | 0 (0=0%) | 3 (3=41-60%) | 1 (1=10-20%)
